PMC10545747, “Development of cyclopeptide inhibitors of cGAS targeting protein-DNA interaction and phase separation” (Nature Communications, 2023)
Values joined by “and” are separate entries in the source; they are usually repeats but may differ in a detail not shown here. Equal values may be shown once. Square brackets hold non-standard residues; d marks the D form. Peptide text beside a SMILES is read from it.

What was measured:
Jurkat cells = assay: Flow cytometry of apoptosis, Annexin V and PI staining; type: cell-based, human; settings: XQ2B +
Method: Cell death was measured by Annexin V-FITC/PI Apoptosis Kit (Elabscience) according to the manufacturer’s instructions. Data were acquired on an Attune NxT (ThermoFisher) flow cytometer and analyzed in FlowJo.
Supplementary Fig. 8. XQ2B inhibits cGAS induced autophagy and cell death. (a) L929 cells were pretreated […]
measured by CCK8 assay. p = 0.0022. (c, d) Jurkat cells were treated with DMSO or XQ2B (5 μM), followed by stimulation with ISD (2ug/ml) for 4 h. Flow cytometric analysis of apoptosis assessed by Annexin V and PI staining.
Analysis strategy shown was used to determine the Annexin V+ or PI+ population (c). Numbers in quadrants present […]
percentages (d). p = 0.0006. […]
by HSV-1 infection for indicated titer and periods. Induction of HSV-1(UL5) mRNA was measured by qPCR. p = 0.0018 (1×10^4 pfu); p < 0.0001 (2×10^4 pfu). Data are representative of three independent experiments with similar results in (a), or three independent experiments in (b, d, e). (Data are presented as mean ± SD, n = 3 independent […]
are provided as a Source Data file.

[1] = test system: THP1-Lucia ISG cells infected by HSV-1; assay: Luciferase reporter assay, HSV-1 infection; type: cell-based, human; settings: for luciferase activity, Fig. 5c: XQ2 10 μM
Method: THP1-Lucia ISG cells (Invivogen) were seeded into a 96-well plate and incubated with RU.521 (Invivogen) or XQ2 for the indicated time, and then transfected with dsDNA by lipofectamine 2000 (Invitrogen) or infected by HSV-1 with the indicated titer for 24 h. The supernatant was collected and 50 μL QUANTI-Luc Luciferase reagent (Invivogen) was added to 20 μL supernatants per well, and luciferase luminescence was detected by a microplate reader (BioTek Synergy H1) immediately.

SMILES	Induced cell death(%) (Fig. S8d) (Jurkat cells; ISD +)	Induced cell death(%) (Fig. S8d) (Jurkat cells; ISD -)	HSV-1-induced luciferase reporter signal ([1]; 10 μM)	luciferase activity, Fig. 5c ([1]; Ctl)	luciferase activity, Fig. 5c ([1]; HSV-1 1×10^4 pfu 24 h)	luciferase activity, Fig. 5c ([1]; HSV-1 2×10^4 pfu 24 h)	luciferase activity, Fig. 5c ([1]; HSV-1 5×10^4 pfu 24 h)
CC(C)C[C@@H]1NC(=O)[C@H](CCCNC(=N)N)NC(=O)[C@H](C(C)C)NC(=O)[C@@H]2CCCN2C(=O)[C@@H](Cc2ccccc2)NC(=O)[C@H](CC(C)C)NC(=O)[C@H](CCCNC(=N)N)NC(=O)[C@H]([C@@H](C)O)NC(=O)[C@H](C)NC(=O)[C@@H](Cc2ccccc2)NC1=O [XQ2B] (cyclo([dF]ATRL[dF]PVRL))	18.8% and 19.1% and 18.5%	3.9% and 3.8%					
CC(C)C[C@@H]1NC(=O)[C@H](CCCNC(=N)N)NC(=O)[C@H](C(C)C)NC(=O)[C@@H]2CCCN2C(=O)[C@@H](Cc2ccccc2)NC(=O)[C@H](CC(C)C)NC(=O)[C@H](CCCNC(=N)N)NC(=O)[C@H](C(C)C)NC(=O)[C@H](C)NC(=O)[C@@H](Cc2ccccc2)NC1=O [XQ2, Cyclo (LfAVRLfPVR)] (cyclo(L[dF]AVRL[dF]PVR))			further confirmed in the reporter cell line THP1 Lucia ISG	1.148 and 1.262 and 1.5089	3.199 and 3.457 and 4.259	5.808 and 6.219 and 6.721	11.1309 and 12.5837 and 12.8036
